Test results from article PMC7924852, “The Emericellipsins A–E from an Alkalophilic Fungus Emericellopsis alkalina Show Potent Activity against Multidrug-Resistant Pathogenic Fungi” (Journal of Fungi, 2021).
Converted amounts (≈) assume the structure as drawn. Read-outs that look alike come from different tables or passages of the source. Starred links: 1 amine or outer side, 2 acyl side, 3 side chain; linkers in the order of their positions; H or OH if unused. Positions of bridges follow the written chain, without caps; N, C: chain ends. Non-standard residues stand in square brackets, D forms with d. Residues, ends and D or L forms follow the SMILES beside them. *: point of attachment. hTyr(3S-OH,4S-OH,3'-OSO3H) = N[C@H](C(=O)O)[C@H](O)[C@@H](O)c1ccc(O)c(OS(=O)(=O)O)c1; Orn(4R-OH,5R-OH) = O=C([C@H](C[C@@H](O)[C@@H](O)N[*:3])N[*:1])[*:2]; Pro(3S-OH,4S-Me) = C[C@H]1CN[C@H](C(=O)O)[C@H]1O; X1 = CCCCCOc1ccc(-c2cc(-c3ccc(C(=O)*)cc3)no2)cc1; Gln(3R-OH) = NC(=O)C[C@@H](O)[C@H](N)C(=O)O; Hyp = O=C(O)[C@@H]1C[C@@H](O)CN1

Key:
Aspergillus niger 1133m = assay: Sensititre YeastOne antifungal susceptibility test; assay type: cell-based
A. fumigatus 390m = assay: Sensititre YeastOne antifungal susceptibility test; assay type: cell-based; details: Aspergillus fumigatus
A. terreus 497 = assay: Sensititre YeastOne antifungal susceptibility test; assay type: cell-based; details: Aspergillus terreus
Candida albicans 1402 [1] = assay: Sensititre YeastOne antifungal susceptibility test; assay type: cell-based
C. glabrata 1402 [2] = assay: Sensititre YeastOne antifungal susceptibility test; assay type: cell-based; details: Nakaseomyces glabratus
C. krusei 1447 [3] = assay: Sensititre YeastOne antifungal susceptibility test; assay type: cell-based; details: Pichia kudriavzevii
C. tropicalis 156 [4] = assay: Sensititre YeastOne antifungal susceptibility test; assay type: cell-based; details: Candida tropicalis
C. parapsilosis 571 [5] = assay: Sensititre YeastOne antifungal susceptibility test; assay type: cell-based; details: Lodderomyces parapsilosis
[6] = tested on: Cryptococcus neoformans 297; assay: Sensititre YeastOne antifungal susceptibility test; assay type: cell-based
Cr. laurentii 325m = assay: Sensititre YeastOne antifungal susceptibility test; assay type: cell-based; details: Papiliotrema laurentii
Candida albicans 1402 [7] = assay: Broth microdilution MIC and MFC (CLSI); assay type: cell-based
C. glabrata 1402 [8] = assay: Broth microdilution MIC and MFC (CLSI); assay type: cell-based; details: Nakaseomyces glabratus
C. krusei 1447 [9] = assay: Broth microdilution MIC and MFC (CLSI); assay type: cell-based; details: Pichia kudriavzevii
C. tropicalis 156 [10] = assay: Broth microdilution MIC and MFC (CLSI); assay type: cell-based; details: Candida tropicalis
C. parapsilosis 571 [11] = assay: Broth microdilution MIC and MFC (CLSI); assay type: cell-based; details: Lodderomyces parapsilosis
[12] = tested on: Cryptococcus neoformans 297; assay: Broth microdilution MIC and MFC (CLSI); assay type: cell-based; details: Cryptococcus neoformans 297 clinical isolate; RPMI 1640 pH 7.0, 35 °C, 24 h; read-out: MIC
C. laurentii 325m = assay: Broth microdilution MIC and MFC (CLSI); assay type: cell-based, Cr. laurentii; details: Papiliotrema laurentii; C. laurentii 325m clinical isolate; RPMI 1640 pH 7.0, 35 °C, 24 h; read-out: MIC
[13] = Sensititre YeastOne, Aspergillus niger 1133m clinical isolate, read-out: MIC
[14] = Sensititre YeastOne, A. fumigatus 390m clinical isolate, read-out: MIC
[15] = Sensititre YeastOne, A. terreus 497 clinical isolate, read-out: MIC
[16] = Sensititre YeastOne, Candida albicans 1402 clinical isolate, read-out: MIC
[17] = Sensititre YeastOne, C. glabrata 1402 clinical isolate, read-out: MIC
[18] = Sensititre YeastOne, C. krusei 1447 clinical isolate, read-out: MIC
[19] = Sensititre YeastOne, C. tropicalis 156 clinical isolate, read-out: MIC
[20] = Sensititre YeastOne, C. parapsilosis 571 clinical isolate, read-out: MIC
[21] = Sensititre YeastOne, Cryptococcus neoformans 297 clinical isolate, read-out: MIC
[22] = Sensititre YeastOne, Cr. laurentii 325m clinical isolate, read-out: MIC

SMILES | MIC (Aspergillus niger 1133m; [13]) | MIC (A. fumigatus 390m; [14]) | MIC (A. terreus 497; [15]) | MIC (Candida albicans 1402 [1]; [16]) | MIC (C. glabrata 1402 [2]; [17]) | MIC (C. krusei 1447 [3]; [18]) | MIC (C. tropicalis 156 [4]; [19]) | MIC (C. parapsilosis 571 [5]; [20]) | MIC [6, 21] | MIC (Cr. laurentii 325m; [22]) | MIC (Aspergillus niger 1133m; Aspergillus niger, 1133M) | MIC (A. fumigatus 390m; 390M) | MIC (A. terreus 497; 497) | MIC (Candida albicans 1402 [1]; Candida albicans, 1402) | MIC (C. glabrata 1402 [2]; 1402) | MIC (C. krusei 1447 [3]; 1447) | MIC (C. tropicalis 156 [4]; 156) | MIC (C. parapsilosis 571 [5]; 571) | MIC ([6]; Cryptococcus neoformans, 297) | MIC (Cr. laurentii 325m; 325M) | also measured
CC[C@@H]([C@H](C)O)n1ncn(-c2ccc(N3CCN(c4ccc(OC[C@@H]5CO[C@@](Cn6cncn6)(c6ccc(F)cc6F)C5)cc4)CC3)cc2)c1=O [PZ, posaconazole] | 0.5 µg/mL (≈ 0.713 µM) | 0.25 µg/mL (≈ 0.357 µM) | 0.12 µg/mL (≈ 0.171 µM) | 0.5 µg/mL (≈ 0.713 µM) | > 8 µg/mL | 0.5 µg/mL (≈ 0.713 µM) | > 8 µg/mL | 1 µg/mL (≈ 1.43 µM) | 0.25 µg/mL (≈ 0.357 µM) | 1 µg/mL (≈ 1.43 µM) | – | – | – | – | – | – | – | – | – | – | –
CC[C@H](C)C[C@H](C)CCCCCCCCC(=O)N[C@H]1C[C@@H](O)[C@@H](NCCN)NC(=O)[C@@H]2[C@@H](O)CCN2C(=O)[C@H]([C@H](O)CCN)NC(=O)[C@H]([C@H](O)[C@@H](O)c2ccc(O)cc2)NC(=O)[C@@H]2C[C@@H](O)CN2C(=O)[C@H]([C@@H](C)O)NC1=O [CAS, Caspofungin] | – | – | – | – | – | – | – | – | – | – | > 16 µg/mL | > 16 µg/mL | > 16 µg/mL | 0.06 µg/mL (≈ 0.0549 µM) | 0.06 µg/mL (≈ 0.0549 µM) | 0.25 µg/mL (≈ 0.229 µM) | 0.06 µg/mL (≈ 0.0549 µM) | 1 µg/mL (≈ 0.915 µM) | 16 µg/mL (≈ 14.6 µM) | 16 µg/mL (≈ 14.6 µM) | MFC (Candida albicans 1402 [7]; Candida albicans 1402, lowest concentration causing 95% death, plated on PDA agar, read-out: MFC): 0.5 µg/mL (≈ 0.457 µM); MIC (Candida albicans 1402 [7]; Candida albicans 1402 clinical isolate, RPMI 1640 pH 7.0, 35 °C, 24 h, read-out: MIC): 0.06 µg/mL (≈ 0.0549 µM); MFC (C. glabrata 1402 [8]; C. glabrata 1402, lowest concentration causing 95% death, read-out: MFC): 0.5 µg/mL (≈ 0.457 µM); MIC (C. glabrata 1402 [8]; C. glabrata 1402 clinical isolate, RPMI 1640 pH 7.0, 35 °C, 24 h, read-out: MIC): 0.06 µg/mL (≈ 0.0549 µM); MFC (C. krusei 1447 [9]; C. krusei 1447, lowest concentration causing 95% death, read-out: MFC): 1 µg/mL (≈ 0.915 µM); MIC (C. krusei 1447 [9]; C. krusei 1447 clinical isolate, RPMI 1640 pH 7.0, 35 °C, 24 h, read-out: MIC): 0.25 µg/mL (≈ 0.229 µM); MFC (C. tropicalis 156 [10]; C. tropicalis 156, lowest concentration causing 95% death, read-out: MFC): 0.5 µg/mL (≈ 0.457 µM); MIC (C. tropicalis 156 [10]; C. tropicalis 156 clinical isolate, RPMI 1640 pH 7.0, 35 °C, 24 h, read-out: MIC): 0.06 µg/mL (≈ 0.0549 µM); MFC (C. parapsilosis 571 [11]; C. parapsilosis 571, lowest concentration causing 95% death, read-out: MFC): 1 µg/mL (≈ 0.915 µM); MIC (C. parapsilosis 571 [11]; C. parapsilosis 571 clinical isolate, RPMI 1640 pH 7.0, 35 °C, 24 h, read-out: MIC): 1 µg/mL (≈ 0.915 µM); MIC [12]: > 64 µg/mL; MIC (C. laurentii 325m): 16 µg/mL (≈ 14.6 µM)
Nc1[nH]c(=O)ncc1F [Emi 5-FC, flucytosine] | – | – | – | – | – | – | – | – | – | – | > 64 µg/mL | > 64 µg/mL | > 64 µg/mL | 0.06 µg/mL (≈ 0.465 µM) | 0.06 µg/mL (≈ 0.465 µM) | 32 µg/mL (≈ 248 µM) | 0.06 µg/mL (≈ 0.465 µM) | 0.5 µg/mL (≈ 3.87 µM) | 8 µg/mL (≈ 62 µM) | 4 µg/mL (≈ 31 µM) | –
CCCCCOc1ccc(-c2cc(-c3ccc(C(=O)N[C@H]4C[C@@H](O)[C@@H](O)NC(=O)[C@@H]5[C@@H](O)[C@@H](C)CN5C(=O)[C@H]([C@H](O)CC(N)=O)NC(=O)[C@H]([C@H](O)[C@@H](O)c5ccc(O)c(OS(=O)(=O)O)c5)NC(=O)[C@@H]5C[C@@H](O)CN5C(=O)[C@H]([C@@H](C)O)NC4=O)cc3)no2)cc1 [MF, micafungin] (X1-[Orn(4R-OH,5R-OH)]T[Hyp][hTyr(3S-OH,4S-OH,3'-OSO3H)][Gln(3R-OH)][Pro(3S-OH,4S-Me)]; lactam 1-C) | – | – | – | – | – | – | – | – | – | – | > 8 µg/mL | > 8 µg/mL | > 8 µg/mL | 0.03 µg/mL (≈ 0.0236 µM) | 0.015 µg/mL (≈ 0.0118 µM) | 0.12 µg/mL (≈ 0.0945 µM) | 0.03 µg/mL (≈ 0.0236 µM) | 1 µg/mL (≈ 0.787 µM) | > 8 µg/mL | > 8 µg/mL | –
CCC(C)n1ncn(-c2ccc(N3CCN(c4ccc(OCC5COC(Cn6cncn6)(c6ccc(Cl)cc6Cl)O5)cc4)CC3)cc2)c1=O (centres unmarked) [IZ, itraconazole] | 1 µg/mL (≈ 1.42 µM) | 0.25 µg/mL (≈ 0.354 µM) | 0.25 µg/mL (≈ 0.354 µM) | 0.5 µg/mL (≈ 0.709 µM) | > 16 µg/mL | 0.5 µg/mL (≈ 0.709 µM) | > 16 µg/mL | 0.5 µg/mL (≈ 0.709 µM) | 0.5 µg/mL (≈ 0.709 µM) | 0.12 µg/mL (≈ 0.17 µM) | – | – | – | – | – | – | – | – | – | – | –
